Literature values, collected in patent US20230255982A1 (priority 2020, published 2023).
Like-named read-outs stand apart in the source and are kept apart here. Marks after values point to notes of the source that are not given here.

Test system: stage 3-4 CKD patients with diabetic nephropathy
Conditions: ASCEND

For COc1ccccc1Oc1c(NS(=O)(=O)c2ccc(C)cn2)nc(-c2ccncc2)nc1OC [Avosentan], the “Occurrence of CHF” value (25 mg, N = 455) is listed as 5.9%*, the “Occurrence of ESRD” value (25 mg, N = 455) is listed as 4.4% and the “Occurrence of CHF” value (50 mg, N = 478) is listed as 6.1%*. For the same molecule, the “Occurrence of ESRD” value (50 mg, N = 478) was 5.0%.
